Here are results for one molecule from paper PMC3652196, “Pharmacometrics of 3-Methoxypterostilbene: A Component of Traditional Chinese Medicinal Plants” (Evidence-based Complementary and Alternative Medicine : eCAM, 2013).

Each structure is given as a SMILES string.

Data set [1] deals with α-glucosidase from Saccharomyces cerevisiae. Kind of data set: α-Glucosidase inhibition colorimetric assay (PNPG). It is filed as biochemical. Conditions: 0 to 200 μg/mL, n = 6.
For data set [2] the following is noted: humans; cited from earlier work.

For `Oc1ccc(/C=C/c2cc(O)cc(O)c2)cc1` [resveratrol], the “α-Glucosidase inhibition (in words)” value in data set [1] is listed as “clear positive concentration-dependent inhibition relationship”. Moreover, the bioavailability (commonly the share of a dose that reaches the circulation, judged against a reference dose that is usually intravenous) in data set [2] is on record as < 1%.
